According to ChEMBL document CHEMBL3638921, “Bicyclic aryl and heteroaryl sodium channel inhibitors” (2015):

How the values were obtained:
[1] = molecular target: T1, Sodium channel protein type 9 subunit alpha (Homo sapiens, UniProt Q15858); test: In Vitro PX Assay: 293 cells stably transfected with human Nav1.7 were recorded in whole cell voltage clamp mode with the PatchXpress automated electrophysiology system (Molecular Devices, LLC, Sunnyvale, Calif.). Compound effects were measured on a partially inactivated state of the sodium channel. Cells were clamped to a holding potential yielding 20 to 50% inactivation. To elicit sodium current, channels were activated by pulsing to −10 mV for 20 msec. This voltage protocol was repeated at a rate of 0.1 Hz throughout the experiment. A single concentration of test compound was applied to cells for a duration of 3 minutes. Peak sodium current was measured at the end of the compound addition period to determine percent inhibition.; assay type: cell-based
T1 sequence (Q15858 whole entry): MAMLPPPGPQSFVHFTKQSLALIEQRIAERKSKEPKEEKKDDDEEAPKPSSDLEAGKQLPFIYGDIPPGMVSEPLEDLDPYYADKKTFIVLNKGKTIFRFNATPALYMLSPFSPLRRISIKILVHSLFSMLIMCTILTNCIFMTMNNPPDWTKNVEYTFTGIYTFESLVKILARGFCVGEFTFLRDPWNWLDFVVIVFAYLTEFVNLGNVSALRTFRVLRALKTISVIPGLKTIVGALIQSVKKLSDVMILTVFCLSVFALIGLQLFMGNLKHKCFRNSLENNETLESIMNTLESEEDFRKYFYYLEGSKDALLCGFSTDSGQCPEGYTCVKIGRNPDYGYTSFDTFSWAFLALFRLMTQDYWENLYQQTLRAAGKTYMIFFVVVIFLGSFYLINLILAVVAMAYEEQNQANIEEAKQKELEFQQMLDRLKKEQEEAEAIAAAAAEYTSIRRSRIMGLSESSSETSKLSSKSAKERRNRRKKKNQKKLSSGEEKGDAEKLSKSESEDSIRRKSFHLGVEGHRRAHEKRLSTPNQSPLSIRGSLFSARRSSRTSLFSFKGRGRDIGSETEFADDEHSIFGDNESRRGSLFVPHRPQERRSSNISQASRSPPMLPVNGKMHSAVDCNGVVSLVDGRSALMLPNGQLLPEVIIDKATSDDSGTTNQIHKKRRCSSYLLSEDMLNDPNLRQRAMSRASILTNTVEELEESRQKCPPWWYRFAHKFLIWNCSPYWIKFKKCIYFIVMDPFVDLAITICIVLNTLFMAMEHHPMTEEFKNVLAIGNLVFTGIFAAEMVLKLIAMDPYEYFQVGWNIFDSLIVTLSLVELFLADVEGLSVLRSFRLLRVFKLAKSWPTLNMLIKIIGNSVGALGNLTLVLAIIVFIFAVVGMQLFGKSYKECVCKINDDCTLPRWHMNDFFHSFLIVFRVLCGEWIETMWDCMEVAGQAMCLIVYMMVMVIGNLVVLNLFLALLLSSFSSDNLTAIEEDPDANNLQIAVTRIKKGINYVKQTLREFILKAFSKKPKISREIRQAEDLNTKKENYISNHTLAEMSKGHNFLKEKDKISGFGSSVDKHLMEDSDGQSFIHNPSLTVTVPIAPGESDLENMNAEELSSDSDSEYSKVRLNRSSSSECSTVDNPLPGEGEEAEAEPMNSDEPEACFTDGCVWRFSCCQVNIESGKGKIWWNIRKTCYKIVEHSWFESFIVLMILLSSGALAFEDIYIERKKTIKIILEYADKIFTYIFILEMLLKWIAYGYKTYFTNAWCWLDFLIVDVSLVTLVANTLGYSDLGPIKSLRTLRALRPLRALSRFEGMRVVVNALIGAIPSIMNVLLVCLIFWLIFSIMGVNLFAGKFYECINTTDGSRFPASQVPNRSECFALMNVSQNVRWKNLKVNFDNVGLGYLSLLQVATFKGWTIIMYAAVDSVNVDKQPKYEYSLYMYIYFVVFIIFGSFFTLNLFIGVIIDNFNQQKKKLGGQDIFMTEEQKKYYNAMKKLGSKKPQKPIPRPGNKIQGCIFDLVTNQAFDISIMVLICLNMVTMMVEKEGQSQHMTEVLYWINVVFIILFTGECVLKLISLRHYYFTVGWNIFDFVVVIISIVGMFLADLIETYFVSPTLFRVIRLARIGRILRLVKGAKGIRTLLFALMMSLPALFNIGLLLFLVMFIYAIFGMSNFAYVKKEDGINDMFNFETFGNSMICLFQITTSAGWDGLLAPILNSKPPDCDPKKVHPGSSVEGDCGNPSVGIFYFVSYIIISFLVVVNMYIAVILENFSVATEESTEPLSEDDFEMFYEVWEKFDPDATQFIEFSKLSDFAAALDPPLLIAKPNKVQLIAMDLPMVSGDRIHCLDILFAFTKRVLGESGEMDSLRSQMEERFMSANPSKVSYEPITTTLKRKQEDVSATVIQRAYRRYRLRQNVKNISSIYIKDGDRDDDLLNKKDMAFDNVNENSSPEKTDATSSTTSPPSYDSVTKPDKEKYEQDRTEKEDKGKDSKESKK

[2] = molecular target: T1, Sodium channel protein type 9 subunit alpha; test: In Vitro Assay: 293 Cells stably transfected with either Nav 1.7 or Nav 1.5 were recorded in population patch-clamp mode with the IonWorks Quattro automated electrophysiology system in accordance with the manufacturer's specifications (Molecular Devices, LLC, Sunnyvale, Calif.). Sodium channel currents were measured in response to a train of depolarizations that induced successively greater inactivation.Cells were held at -110 mV for three seconds (Nav 1.7) or half a second (Nav 1.5) from a holding voltage of -15 mV, then put through a series of 26 pulses of 150 msec duration to -20 mV at a frequency of 5 Hz. Cells were then left unclamped for a period of 3 to 8 minutes while a single concentration of test compound was added. Cells were then reclamped and put through the same voltage protocol. Current at the end of the 26th pulse to -20 mV was subtracted from the peak current evoked by the 26th pulse to -20 mV to correct for leak current.

Compound | IC50 [1] | IC50 [2]
COc1cc(-c2cccnc2)ccc1-c1nccc2cc(S(=O)(=O)Nc3ccncn3)ccc12 | 5370 nM | 
Cc1cc(Cl)ccc1-c1cccc2cc(S(=O)(=O)Nc3ncns3)ccc12 |  | 190 nM
O=S(=O)(Nc1nccs1)c1ccc2c(-c3ccc(F)cc3Oc3cccnn3)nccc2c1 | 13500 nM | 
COc1cc(C#N)ccc1-c1nncc2cc(S(=O)(=O)Nc3nccs3)ccc12 | 1230 nM | 260 nM
O=S(=O)(Nc1ncns1)c1ccc2c(-c3ccc(C(F)(F)F)cc3)cccc2c1 |  | 430 nM
Nc1cc(Cl)ccc1-c1cccc2cc(S(=O)(=O)Nc3ncns3)ccc12 |  | 110 nM
O=S(=O)(Nc1ncns1)c1ccc2c(-c3ccc(Cl)cc3F)cccc2c1 |  | 210 nM
COc1cc(Cl)ncc1-c1nccc2cc(S(=O)(=O)Nc3ccncn3)ccc12 | 18300 nM | 460 nM
O=S(=O)(Nc1ccncn1)c1ccc2c(-c3cc(C(F)(F)F)ccc3F)nccc2c1 | 10800 nM | 570 nM
Cc1cnc(OCCOc2ccccc2)c(-c2nccc3cc(S(=O)(=O)Nc4nccs4)ccc23)c1 | 5160 nM | 
O=S(=O)(Nc1nccs1)c1ccc2c(-c3ccc(C(F)(F)F)cc3Cl)ncnc2c1 | 971 nM | 
O=S(=O)(Nc1ncns1)c1ccc2c(-c3ccc(C(F)(F)F)cc3F)cccc2c1 |  | 210 nM
COc1cc(C)ccc1-c1nccc2cc(S(=O)(=O)Nc3nccs3)ccc12 | 393 nM | 
O=S(=O)(Nc1nccs1)c1ccc2c(N3CCN(c4ccc(Cl)c(Cl)c4)CC3)nccc2c1 | 10900 nM | 
O=S(=O)(Nc1ncns1)c1ccc2c(-c3ccc(Cl)cc3Cl)nccc2c1 |  | 70 nM
O=S(=O)(Nc1ncns1)c1ccc2c(N3CCC3c3ccccc3)cccc2c1 (stereo not given) | 10500 nM | 3900 nM
Cc1noc(C)c1-c1nccc2cc(S(=O)(=O)Nc3ccncn3)ccc12 |  | > 10000 nM
O=S(=O)(Nc1ncns1)c1ccc2c(-c3ccc(Cl)cc3)cccc2c1 |  | 190 nM
CN1CCC(c2cc(C(F)(F)F)ccc2-c2cccc3cc(S(=O)(=O)Nc4ncc(F)s4)ccc23)CC1 | 282 nM | 150 nM
O=S(=O)(Nc1ccncn1)c1ccc2c(-c3ccc(-c4cccc(F)c4)cc3)nccc2c1 | 4500 nM | 
